This assay relates to IL-1β production in PMA-differentiated THP-1 cells. As to the kind of experiment: IL-1β production in PMA-differentiated THP-1 cells stimulated with gramicidin (hTHP-1 assay, 2% bovine serum; Bioassays 1 and 2). Format: cell-based, human. To be noted: hTHP-1 assay containing 2% bovine serum, read-out: Average IC50 of compounds in hTHP-1 assay. As to the method: IL-1β Production in PMA-Differentiated THP-1 Cells Stimulated with Gramicidin.
Cell culture-THP-1 cells were purchased from the American Type Culture Collection and sub-cultured according to instructions from the supplier. Prior to experiments, cells were cultured in RPMI 1640 containing 10% heat inactivated FBS, penicillin (100 units/ml) and streptomycin (100 μg/ml), and maintained in log phase prior to experimental setup. Prior to the experiment THP-1 were treated with PMA (Phorbol 12-myristate 13-acetate) (10 μg/ml) for 24 hours. The day of the experiment the media was removed and attaching cells were treated with trypsin for 2 minutes, cells were then collected, washed with PBS (phosphate buffer saline), spin down, resuspended in 2% heat inactivated FBS with RPMI at a concentration of 1×10^6 cells/ml, and 100 ul was plated in a 96 well plate. Cells were incubated with compounds for 1 hours and then stimulated with Gramicidin (5 μM) (Enzo) for 2 hours. Cell free supernatant was collected and the production of IL-1β was evaluated by ELISA. Compounds were dissolved in dimethyl sulfoxide (DMSO) and added to the culture medium to achieve desired concentration (e.g. 100, 30, 10, 3, 1, 0.3 or 0.1 μM). A vehicle only control was run concurrently with each experiment. Final DMSO concentration was 1%.
THP-1 cells were purchased from the American Type Culture Collection and sub-cultured according to instructions from the supplier. Prior to experiments, cells were cultured in complete RPMI 1640 (containing 10% heat inactivated FBS, penicillin (100 units/ml) and streptomycin (100 μg/ml)), and maintained in log phase prior to experimental setup. Prior to the experiment THP-1 were treated with PMA (Phorbol 12-myristate 13-acetate) (20 ng/ml) for 16-18 hours. On the day of the experiment the media was removed and adherent cells were detached with trypsin for 5 minutes. Cells were then harvested, washed with complete RPMI 1640, spun down, resuspended in RPMI 1640 (containing 2% heat inactivated FBS, penicillin (100 units/ml) and streptomycin (100 μg/ml). The cells were plated in a 384-well plate at a density of 50,000 cells/well (final assay volume 50 μl). Compounds were dissolved in dimethyl sulfoxide (DMSO) and added to the culture medium to achieve desired concentration (e.g. 100, 33, 11, 3.7, 1.2, 0.41, 0.14, 0.046, 0.015, 0.0051, 0.0017 μM). Cells were incubated with compounds for 1 hour and then stimulated with gramicidin (5 μM) (Enzo) for 2 hours. Cell free supernatant was collected and the production of IL-10 was evaluated by HTRF (cisbio). A vehicle only control was run concurrently with each experiment. Final DMSO concentration was 0.38%.
Compounds tested with protocols 1 and 2 provided IC50 values that are within the variability of the assay.
Tables 12 and 13 show the biological activity of compounds in hTHP-1 assay containing 2% bovine serum: <1 μM=“++++”; ≥1 and <5 μM=“+++”; ≥5 and <15 μM=“++”; ≥15 and <60 μM=“+”.

Where [1] appears, read: Homo sapiens, THP-1, Table 13, by Final Target Number.
[2] abbreviates: Homo sapiens, THP-1, Table 12, by Example #.

SMILES strings stand for the structures. Read-outs that look alike come from different tables or passages of the source.

By IC50 is commonly meant the concentration that gives 50% inhibition.

With `CC(C)c1cc(F)cc(C(C)C)c1CC(=O)NS(=O)(=O)c1ncc(CN(C)C)s1` [Compound 213], the IC50 under setting [1] lay within 5 to 15 µM.

Take `CC(C)c1cc(F)cc(C(C)C)c1CC(=O)NS(=O)(=O)c1ccc(CN(C)C)cc1` [Compound 214]: the IC50 under setting [1] was less than 1 µM.

Turning to `CC(C)c1cc(F)cc(C(C)C)c1CC(=O)NS(=O)(=O)c1cccc(CN(C)C)c1` [Compound 215], the IC50 under setting [1] was in the range of 5 to 15 µM. `CC(C)(O)c1coc(S(=O)(=O)NC(=O)Cc2c3c(cc4c2CCC4)CCC3)c1` [Example 1, 2-(1,2,3,5,6,7-Hexahydros-indacen-4-yl)-N-(4-(2-hydroxypropan-2-yl)furan-2-ylsulfonyl)acetamide]: under setting [2], the IC50 was in the range of 5 to 15 µM. The same measure, in the same setting: to `CC(C)c1cccc(C(C)C)c1CC(=O)NS(=O)(=O)c1ncc(C(C)(C)O)s1` [Example 2, 2-(2,6-Diisopropylphenyl)-N-(5-(2-hydroxypropan-2-yl)thiazol-2-ylsulfonyl)acetamide] belongs 1 to 5 µM.

Turning to `CC(C)(O)c1cnc(S(=O)(=O)NC(=O)Cc2c3c(cc4c2CCC4)CCC3)s1` [Example 3, 2-(1,2,3,5,6,7-Hexahydros-indacen-4-yl)-N-(5-(2-hydroxypropan-2-yl)thiazol-2-ylsulfonyl)acetamide], the IC50 under setting [2] lay within 15 to 60 µM. Still for that read-out and setting: to `CC(C)c1cc(F)cc(C(C)C)c1CC(=O)NS(=O)(=O)c1ncc(C(C)(C)CO)s1` [Example 4, 2-(4-Fluoro-2,6-diisopropylphenyl)-N-(5-(1-hydroxy-2-methylpropan-2-yl)thiazol-2-ylsulfonyl)acetamide] belongs 5 to 15 µM.

`CC(C)(O)c1cnc(S(=O)(=O)NC(=O)Cc2c3c(c(Cl)c4c2CCC4)CCC3)s1` [Example 5, 2-(8-Chloro-1,2,3,5,6,7-hexahydros-indacen-4-yl)-N-(5-(2-hydroxypropan-2-yl)thiazol-2-ylsulfonyl)acetamide]: the IC50 under setting [2] fell in the range of 15 to 60 µM.

Take `CC(C)c1cc(C#N)cc(C(C)C)c1CC(=O)NS(=O)(=O)c1ncc(C(C)(C)O)s1` [Example 6, 2-(4-cyano-2,6-diisopropylphenyl)-N-(5-(2-hydroxypropan-2-yl)thiazol-2-ylsulfonyl)acetamide]: the IC50 under setting [2] was 1 to 5 µM. For `CC(C)(O)c1csc(S(=O)(=O)NC(=O)Cc2c3c(cc4c2CCC4)CCC3)c1` [Example 7, 2-(1,2,3,5,6,7-hexahydro-sindacen-4-yl)-N-(4-(2-hydroxypropan-2-yl)thiophen-2-ylsulfonyl)acetamide], the IC50 (Table 12, by Example #) was 5 to 15 µM.

On to `CC(C)c1cccc(C(C)C)c1CC(=O)NS(=O)(=O)c1cc(C(C)(C)O)cs1` [Example 8, 2-(2,6-diisopropylphenyl)-N-(4-(2-hydroxypropan-2-yl)thiophen-2-ylsulfonyl)acetamide], for which the IC50 under setting [2] was less than 1 µM. `CC(C)c1cc(F)cc(C(C)C)c1CC(=O)NS(=O)(=O)c1cc(C(C)(C)O)cs1` [Example 9, 2-(4-fluoro-2,6-diisopropylphenyl)-N-(4-(2-hydroxypropan-2-yl)thiophen-2-ylsulfonyl)acetamide]: the IC50 under setting [2] is less than 1 µM. On the same count and under the same terms, to `CC(C)c1cc(C#N)cc(C(C)C)c1CC(=O)NS(=O)(=O)c1cc(C(C)(C)O)cs1` [Example 10, 2-(4-cyano-2,6-diisopropylphenyl)-N-(4-(2-hydroxypropan-2-yl)thiophen-2-ylsulfonyl)acetamide] belongs less than 1 µM. Turning to `CC(C)c1ccc(F)c(C(C)C)c1CC(=O)NS(=O)(=O)c1cc(C(C)(C)O)cs1` [Example 11, 2-(3-fluoro-2,6-diisopropylphenyl)-N-(4-(2-hydroxypropan-2-yl)thiophen-2-ylsulfonyl)acetamide], the IC50 under setting [2] is less than 1 µM. On the same count and under the same terms, for `CC(C)c1c(F)c(Cl)c(F)c(C(C)C)c1CC(=O)NS(=O)(=O)c1cc(C(C)(C)O)cs1` [Example 12, 2-(4-chloro-3,5-difluoro-2,6-diisopropylphenyl)-N-(4-(2-hydroxypropan-2-yl)thiophen-2-ylsulfonyl)acetamide] the value was less than 1 µM.

Source of the values: patent US11447460B2, “Compounds and compositions for treating conditions associated with NLRP activity” (Novartis AG, priority 2016, dated 2022).
